{"source": "patent US20230323028A1", "about": "“ADHESIVE PHOTOPROTECTIVE COMPOUNDS AND USES THEREOF” (SKINOSIVE, priority 2019, published 2023)", "key": {"[1]": {"assay": "λmax UV absorbance in solution", "assay_type": "physicochemical", "procedure": "λmax UV absorbance of diethylamino hydroxybenzoyl hexyl benzoate in ethanol/DMSO 9/1 was measured at 357 nm and λmax UV absorbance of Compound #16 was measured at 357 nm.\nλmax UV absorbance of diethylamino hydroxybenzoyl hexyl benzoate in ethanol/DMSO 9/1 was measured at 357 nm and λmax UV absorbance of Compound #17 was measured at 357 nm.\nλmax UV absorbance of Octocrylene in ethanol/DMSO 9/1 was measured at 305 nm and λmax UV absorbance of Compound #18 was measured at 293 nm.\nλmax UV absorbance of Octocrylene in ethanol/DMSO 9/1 was measured at 305 nm and λmax UV absorbance of Compound #19 was measured at 308 nm.\nλmax UV absorbance of Ecamsule in Ethanol/H2O/DMSO 5/3/2 was measured at 341 nm and λmax UV absorbance of Compound #20 was measured at 344 nm.\nλmax UV absorbance of bemotrizinol in ethanol/benzyl alcohol/DMSO/Phenoxyethanol 63/18/10/9 was measured at 342 nm and λmax UV absorbance of Compound #21 was measured at 342 nm.\nλmax UV absorbance of Octocrylene in ethanol was measured at 304 nm and Amax UV absorbance of Compound #23 was measured at 304 nm."}, "[2]": {"assay": "Bioadhesion in liquid phase: binding to cysteine, assayed by HPLC", "settings": "1 to 2 minutes, Ethanol-1×PBS pH 6.8 (pH 6.0 for compound #23)", "procedure": "The compounds bio adhesion was carried out in solution, for the protein binding, and for the specific binding of sulfhydryl-reactive chemical groups of cysteine. The compounds were mixed either with an equimolar solution of cysteine (two molar equivalent solution of cysteine for the compounds including two maleimides) or an excess of cysteine solution (five or ten times molar compound concentration) and were incubated 1 to 2 minutes in an Ethanol-1×PBS, pH 6.8 solution and in Ethanol-1×PBS, pH 6.0 solution for the compound #23.\nThe compound and the compound bound to the cysteine were identified by LC-MSD (Agilent 1260 Infinity II equipped with an Uptisphere strategy C18 or SunFire C18 column) and assayed by HPLC using an Agilent Infinity II Prime UHPLC UV detector system. The separation was achieved by using a gradient phase of water and acetonitrile on an Agilent Poroshell 120 EC-C18 column (3×100 mm, 2.7 μM)."}, "[3]": {"assay": "Adhesion on thiolated polylysine matrix (UV absorbance of coated 96-well microplates)", "settings": "UV absorbance at 300 nm; overnight incubation in ethanol/PBS (90%/10%); washed 10 times with ethanol", "procedure": "(§1) Polylysine and Polylysine enriched in SH by thiolation of primary amines using Traut's reagent were used for coating 96-well microplates. Compound #23 (OOM) incubated overnight under orbital agitation on the different matrices (n=3 for each condition) (uncoated wells were used as negative controls), in an ethanol/PBS (90%/10%) solution. After incubation, each microplate well was thoroughly washed 10 times with ethanol, before measuring UV absorbance. Whole UV/Visible absorbance spectrum from 220 to 1000 nm were measured in the center of each microplate well. In addition, specific UV absorbance at 300 nm was measured by matrix scan over the whole the well as a 10×10 matrix."}, "[4]": {"assay": "Adhesion on polylysine matrix, non thiolated (UV absorbance of coated 96-well microplates)", "settings": "UV absorbance at 300 nm; overnight incubation in ethanol/PBS (90%/10%); washed 10 times with ethanol", "procedure": "as §1"}, "pig skin": {"tested_on": "pig skin", "assay": "UVB protection ex vivo on pig skin by autofluorescence quenching", "settings": "for UVB Fluorescence (Ex300/Em460), autofluorescence of pig skin: 4 h incubation at 37° C. in Dottisol, Mean ± SD, N = 3", "procedure": "UVB protection has been assessed ex vivo on pig skin by measuring the autofluorescence quenching. OOM (Compound #23) and OCR (Octocrylene) were solubilized at the same molar concentration in Dottisol (isosorbide dimethyl ether), then covered 6.25 cm^2 skin square and incubated 4 hours at 37° C., washed or not with 10 mL Ethanol for 5 min on agitation. Then 7 mm diameter skin punches were cut and placed in a black 96-well plate. UVB protection was measured after respectively an excitation at 300 nm and a fluorescence emission was read at 460 nm."}, "[5]": {"settings": "equimolar cysteine:compound solution (two molar equivalents for compounds with two maleimides)"}, "[6]": {"settings": "in ethanol/benzyl alcohol/DMSO/Phenoxyethanol 63/18/10/9"}, "[7]": {"settings": "excess of cysteine (five or ten times molar compound concentration)"}, "[8]": {"settings": "EtOH Wash (10 mL Ethanol, 5 min)"}}}
{"smiles": "N#CC(C(=O)OCCS(=O)(=O)CCNC(=O)CCN1C(=O)C=CC1=O)=C(c1ccccc1)c1ccccc1", "note": "[Compound #19, 2-cyano-3,3-diphenyl-prop-2-enoate, 2-[2-[3-(2,5-dioxopyrrol-1-yl)propanoylamino]ethylsulfonyl]ethyl ester]", "values": [{"measurement": "λmax UV absorbance", "setting": "[1]; in ethanol/DMSO 9/1", "value": 308, "unit": "nm"}, {"measurement": "Cysteine-bound compound", "setting": "[2]; [5]", "value": 71, "unit": "%"}, {"measurement": "Free compound", "setting": "[2]; [5]", "value": 29, "unit": "%"}]}
{"smiles": "CCCCCCOC(=O)c1ccccc1C(=O)c1ccc(N(CC)CC)cc1O", "note": "[diethylamino hydroxybenzoyl hexyl benzoate, reference compound]", "values": [{"measurement": "λmax UV absorbance", "setting": "[1]; in ethanol/DMSO 9/1", "value": 357, "unit": "nm"}]}
{"smiles": "CCCCC(CC)COc1ccc(-c2nc(-c3ccc(OC)cc3)nc(-c3ccc(OCC(CC)CCCC)cc3O)n2)c(O)c1", "note": "(stereo not shown) [bemotrizinol, reference compound]", "values": [{"measurement": "λmax UV absorbance", "setting": "[1]; [6]", "value": 342, "unit": "nm"}]}
{"smiles": "CCN(CC)c1ccc(C(=O)c2ccccc2C(=O)OCCNC(=O)CCN2C(=O)C=CC2=O)c(O)c1", "note": "[Compound #17, 2-[4-(diethylamino)-2-hydroxy-benzoyl]benzoic acid, 2-[3-(2,5-dioxopyrrol-1-yl)propanoylamino]ethyl ester]", "values": [{"measurement": "λmax UV absorbance", "setting": "[1]; in ethanol/DMSO 9/1", "value": 357, "unit": "nm"}, {"measurement": "Cysteine-bound compound", "setting": "[2]; [5]", "value": 78, "unit": "%"}, {"measurement": "Free compound", "setting": "[2]; [5]", "value": 22, "unit": "%"}]}
{"smiles": "CC1(C)C2CCC1(CS(=O)(=O)NCCNC(=O)CCN1C(=O)C=CC1=O)C(=O)/C2=C\\c1ccc(/C=C2\\C(=O)C3(CS(=O)(=O)NCCNC(=O)CCN4C(=O)C=CC4=O)CCC2C3(C)C)cc1", "note": "[Compound #20, 3-(2,5-dioxopyrrol-1-yl)-N-[2-[[(3Z)-3-[[4-[(Z)-[4-[2-[3-(2,5-dioxopyrrol-1-yl)propanoylamino]ethylsulfamoylmethyl]-7,7-dimethyl-3-oxo-norbornan-2-ylidene]methyl]phenyl]methylene]-7,7-dimethyl-2-oxo-norbornan-1-yl]methylsulfonylamino]ethyl]propanamide]", "values": [{"measurement": "λmax UV absorbance", "setting": "[1]; in Ethanol/H2O/DMSO 5/3/2", "value": 344, "unit": "nm"}, {"measurement": "Cysteine-bound compound", "setting": "[2]; [5]", "value": 85, "unit": "%"}, {"measurement": "Free compound", "setting": "[2]; [5]", "value": 15, "unit": "%"}, {"measurement": "Cysteine-bound compound", "setting": "[2]; [7]", "value": 100, "unit": "%"}, {"measurement": "Free compound", "setting": "[2]; [7]", "value": 0, "unit": "%"}]}
{"smiles": "N#CC(C(=O)NCCNC(=O)CCN1C(=O)C=CC1=O)=C(c1ccccc1)c1ccccc1", "note": "[Compound #18, 2-cyano-N-[2-[3-(2,5-dioxopyrrol-1-yl)propanoylamino]ethyl]-3,3-diphenyl-prop-2-enamide]", "values": [{"measurement": "λmax UV absorbance", "setting": "[1]; in ethanol/DMSO 9/1", "value": 293, "unit": "nm"}, {"measurement": "Cysteine-bound compound", "setting": "[2]; [5]", "value": 73, "unit": "%"}, {"measurement": "Free compound", "setting": "[2]; [5]", "value": 27, "unit": "%"}, {"measurement": "Cysteine-bound compound", "setting": "[2]; [7]", "value": 99, "unit": "%"}, {"measurement": "Free compound", "setting": "[2]; [7]", "value": 1, "unit": "%"}]}
{"smiles": "CC1(C)C2CCC1(CS(=O)(=O)O)C(=O)C2=Cc1ccc(C=C2C(=O)C3(CS(=O)(=O)O)CCC2C3(C)C)cc1", "note": "[Ecamsule, terephtalylidene dicamphor sulfonic acid, reference compound]", "values": [{"measurement": "λmax UV absorbance", "setting": "[1]; in Ethanol/H2O/DMSO 5/3/2", "value": 341, "unit": "nm"}]}
{"smiles": "COc1ccc(-c2nc(-c3ccc(OCCCNC(=O)CCN4C(=O)C=CC4=O)cc3O)nc(-c3ccc(OCCCNC(=O)CCN4C(=O)C=CC4=O)cc3O)n2)cc1", "note": "[Compound #21, 3-(2,5-dioxopyrrol-1-yl)-N-[3-[4-[4-[4-[3-[3-(2,5-dioxopyrrol-1-yl)propanoylamino]propoxy]-2-hydroxy-phenyl]-6-(4-methoxyphenyl)-1,3,5-triazin-2-yl]-3-hydroxy-phenoxy]propyl]propanamide]", "values": [{"measurement": "λmax UV absorbance", "setting": "[1]; [6]", "value": 342, "unit": "nm"}]}
{"smiles": "N#CC(C(=O)OCCCCCCCCNC(=O)CCN1C(=O)C=CC1=O)=C(c1ccccc1)c1ccccc1", "note": "[Compound #23, 8-(3-(2,5-dioxo-2,5-dihydro-1H-pyrrol-1-yl)propanamido)octyl 2-cyano-3,3-diphenylacrylate]", "values": [{"measurement": "λmax UV absorbance", "setting": "[1]; in ethanol", "value": 304, "unit": "nm"}, {"measurement": "Cysteine-bound compound", "setting": "[2]; [5]", "value": 100, "unit": "%"}, {"measurement": "Free compound", "setting": "[2]; [5]", "value": 0, "unit": "%"}, {"measurement": "Cysteine-bound compound", "setting": "[2]; [7]", "value": 100, "unit": "%"}, {"measurement": "Free compound", "setting": "[2]; [7]", "value": 0, "unit": "%"}, {"measurement": "bio adhesion on thiolated polylysine matrix", "setting": "[3]", "value": "showed a bio adhesion"}, {"measurement": "bioadhesion on polylysine matrix (non thiolated)", "setting": "[4]", "value": "no bioadhesion"}, {"measurement": "UVB Fluorescence (Ex300/Em460), autofluorescence of pig skin", "setting": "pig skin; [8]", "value": "34870 ± 2729"}, {"measurement": "UVB Fluorescence (Ex300/Em460), autofluorescence of pig skin", "setting": "pig skin; No Wash", "value": "25544 ± 3797"}, {"measurement": "reduction of UVB protection after ethanol wash compared to the initial protection before washing", "setting": "pig skin; ethanol wash", "value": 30, "unit": "%"}, {"measurement": "bio adhesion on pig skin (conclusion)", "setting": "pig skin; retention of UVB protection after ethanol wash", "value": "bio adhesive"}, {"measurement": "UVB protection of the pig skin compared with octocrylene (OCR)", "setting": "pig skin; same molar concentration, no wash", "value": "more than two times higher"}]}
{"smiles": "CCN(CC)c1ccc(C(=O)c2ccccc2C(=O)OCCOCCNC(=O)CCN2C(=O)C=CC2=O)c(O)c1", "note": "[Compound #16, 2-[4-(diethylamino)-2-hydroxybenzoyl]-benzoic acid, 2-[2-[3-(2,5-dioxopyrrol-1-yl)propanoylamino]ethoxy]ethyl ester]", "values": [{"measurement": "λmax UV absorbance", "setting": "[1]; in ethanol/DMSO 9/1", "value": 357, "unit": "nm"}, {"measurement": "Cysteine-bound compound", "setting": "[2]; [5]", "value": 75, "unit": "%"}, {"measurement": "Free compound", "setting": "[2]; [5]", "value": 25, "unit": "%"}, {"measurement": "Cysteine-bound compound", "setting": "[2]; [7]", "value": 92, "unit": "%"}, {"measurement": "Free compound", "setting": "[2]; [7]", "value": 8, "unit": "%"}]}
{"smiles": "CCCCC(CC)COC(=O)C(C#N)=C(c1ccccc1)c1ccccc1", "note": "(stereo not shown) [Octocrylene, reference compound]", "values": [{"measurement": "λmax UV absorbance", "setting": "[1]; in ethanol", "value": 304, "unit": "nm"}, {"measurement": "λmax UV absorbance", "setting": "[1]; in ethanol/DMSO 9/1", "value": 305, "unit": "nm"}, {"measurement": "bio adhesion on thiolated polylysine matrix", "setting": "[3]", "value": "did not show a bio adhesion"}, {"measurement": "UVB Fluorescence (Ex300/Em460), autofluorescence of pig skin", "setting": "pig skin; [8]", "value": "201968 ± 11493"}, {"measurement": "UVB Fluorescence (Ex300/Em460), autofluorescence of pig skin", "setting": "pig skin; No Wash", "value": "64781 ± 3246"}, {"measurement": "UVB protection after the ethanol washing step", "setting": "pig skin; ethanol wash", "value": "corresponds to the unprotected control"}]}
